5 compounds from patent US20070254939A1, “Formulations Containing Amide Derivatives of Carboxylic Acid NSAIDS for Topical Administration to the Eye” (ALCON, INC., priority 2006, published 2007) can be followed below.

In the data set the test system is mitochondria prepared from the livers of male Sprague Dawley rats. The experiment in a line: in vitro mitochondrial swelling assay (light scattering at 540 nm). The conditions noted are these: for swelling response of non-peroxide stressed (control) mitochondria: normal, unstressed mitochondria, test article 100 μM, time course over 17 minutes, FIG. 1. It is filed as biochemical, rat. Here is the method:
To evaluate the effects of sulfite salts on carboxylic acid NSAID-induced mitochondrial swelling, the following assay was used. […] An initial low speed centrifugation (600×g for 10 minutes) was conducted to remove nuclei and cell debris. The pellet was discarded and the supernatant was centrifuged at 7,740×g for 10 minutes to obtain a crude mitochondrial pellet. […] The suspension was centrifuged at 7,740×g for 10 minutes. The mitochondrial pellet was suspended in 30 mL of ice-cold wash buffer and centrifuged at 10,100×g for 10 minutes. […] The mitochondrial suspension was placed on ice for immediate assay. An aliquot of the mitochondrial preparation was added to a 5.0 mL cuvette (1.0 cm path length) that contained 2.95 mL of iso-osmotic HEPES buffer, supplemented with sodium succinate and rotenone. An appropriate aliquote of the mitochondrial suspension was added to the cuvette and swelling was monitored by light scattering at 540 nm for a period of 17 minutes. When drug effects were examined, mitochondria were initially exposed for a period of one minute to the test article before the addition of either buffer, t-BOOH (150 μM) or sodium sulfite (300 μM).

`Nc1c(CC(=O)O)cccc1C(=O)c1ccccc1` [amfenac]: the “swelling response of non-peroxide stressed (control) mitochondria” value is “do not affect swelling”.

As for `Nc1c(CC(=O)O)cccc1C(=O)c1ccc(Br)cc1` [bromfenac], the “swelling response of non-peroxide stressed (control) mitochondria” value is reported as “do not affect swelling”.

Regarding `O=C(O)Cc1ccccc1Nc1c(Cl)cccc1Cl` [diclofenac], the “swelling response of non-peroxide stressed (control) mitochondria” value is “do not affect swelling”. In addition, the “swelling response of t-BOOH-stressed mitochondria” value (t-BOOH 150 μM, diclofenac 30, 100 or 300 μM, FIG. 2) is listed as “promote the swelling of mitochondria”.

For the compound `CC(C)Cc1ccc(C(C)C(=O)O)cc1` (stereo not drawn) [ibuprofen], the “swelling response of non-peroxide stressed (control) mitochondria” value was “do not affect swelling”.

Turning to `O=S([O-])[O-].[Na+].[Na+]` [sodium sulfite], the “effect of sulfite salt on NSAID-induced swelling of peroxide-stressed mitochondria” value (t-BOOH 150 μM, sodium sulfite 300 μM with 60 μM amfenac or 60 μM bromfenac, FIG. 3) was “mitochondrial swelling is prevented”.
